In patent EP4341264B1, “PYRROLOPIRIMIDINE DERIVATIVES AND THEIR USE IN THE TREATMENT OF LEISHMANIASIS” (Drugs for Neglected Diseases Initiative, priority 2021, dated 2022):
Read-outs that look alike come from different tables or passages of the source.

Legend:
[1] = tested on: L. donovani (MHOM/ET/67/L82); test: Intracellular amastigote susceptibility assay (primary peritoneal mouse macrophages); assay type: cell-based; details: Leishmania donovani, Macrophage; L. donovani (MHOM/ET/67/L82) amastigotes in mouse macrophages, 96-h incubation
Method: (§1) To obtain primary peritoneal macrophages, Swiss mice were stimulated by intraperitoneal injection of 1 mL 2% starch in PBS 48 h prior to cell collection. Animals were euthanized with a CO2 overdose and upon removal of the skin, 10 mL of RPMI-1640 (Life Technologies) was injected into the peritoneal cavity to collect the macrophages that were then seeded into 96-well plates at a final concentration of 30,000 cells/well in 100 µL of RPMI-1640 macrophage medium, supplemented with 5% iFCS, 2% penicillin/streptomycin and 1% L-glutamine (Life technologies). After 24 h, the cells were infected with spleen derived L. infantum (MHOM/MA(BE)/67/ITMAP263) or L. donovani (MHOM/ET/67/L82) amastigotes obtained from heavily infected donor hamsters. The amastigotes were purified using two centrifugation steps and diluted to obtain an infection ratio of 5:1 in RPMI-1640 cell culture medium. After incubation for 2 h, compound dilutions were added. Drug activity was evaluated after a 96-h incubation period without washing of the cells and without renewal of the drugged culture medium. Cells were stained with Giemsa for microscopic evaluation of cellular amastigote burdens. Percentage reduction compared to the burdens in the infected non-treated control wells was used as a measure for drug activity.

[2] = tested on: L. infantum (MHOM/MA/67/ITMAP263); test: as above; assay type: cell-based; details: Leishmania infantum, Macrophage; L. infantum (MHOM/MA/67/ITMAP263) amastigotes in mouse macrophages, 96-h incubation
Method: as §1

[3] = tested on: L. major (MHOM/SA/85/JISH118); test: Leishmania clinical isolate panel screen (drug-susceptibility assay in infected macrophages); assay type: cell-based; details: Macrophage, read-out: IC50 Mean ± SEM
Method: (§2) Female Swiss mice (BW ~20 g) were purchased from a commercial source (Janvier France) and kept in quarantine for 1 week. The animals were housed in group and drinking water was available ad libitum. To harvest peritoneal macrophages, the mice were first stimulated by intraperitoneal injection of 1 mL of starch solution (2% in PBS). After 24 h, macrophages were collected in RPMI-1640 supplemented with 5% iFCS, 2% penicillin-streptomycin and 1% L-glutamine by peritoneal lavage and immediately distributed in a 96-well plate at a concentration of 30,000 cells/well. The cells were incubated for 24 h at 37°C and 5 % CO2 to allow cell attachment.
(§3) Strains of L. donovani, L. infantum, L. major, L. tropica, L. guyanensis and L. panamensis were selected based on their intrinsic susceptibility to the commonly used reference drugs and their geographic distribution. All strains were cultivated in HOMEM promastigote medium and sub-cultured twice weekly. Passage numbers were kept as low as possible to avoid loss of virulence. For infection of the macrophages, metacyclic promastigote cultures were examined light microscopically for the abundant presence of metacyclic promastigotes. Upon counting, promastigotes were centrifuged and diluted in RPMI-1640 to the desired concentration. The infection ratio varied based on the ability of the strain to adequately infect the host cells and ranged from 5 to 20 promastigotes per macrophage. Macrophages were infected by adding 100 µL promastigote suspension per well onto the macrophages. When ex vivo amastigotes were available (only for two lab strains), macrophages were infected at a ratio of 10/1.
(§4) Stock solutions of the DNDi lead compounds were prepared in 100% DMSO at 20 mM and robotically further diluted in water. Miltefosine (MIL) was included as reference and formulated in water at a concentration of 20 mM. The medium was discarded from the plates to remove any residual non-internalized promastigotes and replaced by fresh RPMI-1640 medium supplemented with iFBS, P/S and L-glutamine (as described above). Next, a 2-fold dilution series of each lead compound was added to the plate with 64 µM as the highest in test-concentration for the DNDi leads and 40 µM for MIL. The 96-well plates were further incubated at 34-37°C and 5% CO2. For staining, the culture medium was discarded, and the plates were left to dry for 2-4 hours. The cells were then fixated with methanol for 10 minutes and stained with a 1/5 Giemsa dilution in water for 15 minutes. The percentage infection-inhibition compared to a positive control (untreated infected macrophages) was microscopically determined and used to calculate the IC50 and IC90 values.

[4] = tested on: L. infantum (MHOM/FR/96/LEM3323-cl4); test: as above; assay type: cell-based; details: Macrophage, read-out: IC50 Mean ± SEM
Method: as §2, §3, §4

[5] = tested on: L. panamensis (MHOM/PA/71/LS94); test: as above; assay type: cell-based; details: Macrophage, read-out: IC50 Mean ± SEM
Method: as §2, §3, §4

[6] = tested on: L. tropica (MHOM/AF/2015/HTD7); test: as above; assay type: cell-based; details: Macrophage, read-out: IC50 Mean ± SEM
Method: as §2, §3, §4

[7] = tested on: L. infantum (LEM3323-cl4 PMM); test: as above; assay type: cell-based; details: Macrophage, read-out: IC50 Mean ± SEM
Method: as §2, §3, §4

[8] = tested on: L. guyanensis (MHOM/PE/02/PER 054/0); test: as above; assay type: cell-based; details: Macrophage, read-out: IC50 Mean ± SEM
Method: as §2, §3, §4

[9] = tested on: L. infantum (LEM3323-cl4 MIL); test: as above; assay type: cell-based; details: Macrophage, read-out: IC50 Mean ± SEM
Method: as §2, §3, §4

[10] = tested on: L. donovani (MHOM/NP/03/BPK275/0-cl18); test: as above; assay type: cell-based; details: Macrophage, read-out: IC50 Mean ± SEM
Method: as §2, §3, §4

[11] = tested on: L. infantum (MHOM/ES/2016/LLM-2346); test: as above; assay type: cell-based; details: Macrophage, read-out: IC50 Mean ± SEM
Method: as §2, §3, §4

[12] = tested on: L. major (MHOM/IL/81/Friedlin); test: as above; assay type: cell-based; details: Macrophage, read-out: IC50 Mean ± SEM
Method: as §2, §3, §4

[13] = tested on: L. infantum (MHOM/BR/2007/WC (L3015)); test: as above; assay type: cell-based; details: Macrophage, read-out: IC50 Mean ± SEM
Method: as §2, §3, §4

[14] = tested on: L. donovani (MHOM/ NP/2003/BPK282/0-cl4); test: as above; assay type: cell-based; details: Macrophage, read-out: IC50 Mean ± SEM
Method: as §2, §3, §4

L. infantum = test: VL hamster model in vivo efficacy (reduction of parasite load vs. control); details: 5 days
Method: The in vivo efficacy of the compounds C1, C3, C4, and miltefosine was evaluated in a VL hamster model infected with L. infantum. The in vivo studies were performed in accordance with the methods described by Van den Kerkhof et al. [IJP: Drugs and Drug Resistance, 2018, 8, Issue 1, 81-86]. Following treatment, the reduction of parasite load vs. control was determined in different body compartments (liver, spleen, and bone marrow) with results presented in Table 4. Table 4. Hamster in vivo efficacy

[15] = tested on: L. donovani parasites in infected human macrophages; details: Peña et al. Sci. Rep. 2015, 5; cited from earlier work
[16] = tested on: T. cruzi infected NIH-3T3 murine fibroblasts; details: Peña et al. Sci. Rep. 2015, 5; cited from earlier work
[17] = Cutaneous leishmaniasis, L. major (MHOM/SA/85/JISH118), Miltefosine: mean only
[18] = Visceral leishmaniasis, L. infantum (MHOM/FR/96/LEM3323-cl4), Miltefosine: mean only
[19] = Cutaneous leishmaniasis, L. panamensis (MHOM/PA/71/LS94), Miltefosine: mean only
[20] = Cutaneous leishmaniasis, L. tropica (MHOM/AF/2015/HTD7), Miltefosine: mean only
[21] = Cutaneous leishmaniasis, L. guyanensis (MHOM/PE/02/PER 054/0), Miltefosine: mean only
[22] = Visceral leishmaniasis, L. donovani (MHOM/NP/03/BPK275/0-cl18), Miltefosine: mean only
[23] = Visceral leishmaniasis, L. infantum (MHOM/ES/2016/LLM-2346), Miltefosine: mean only
[24] = Cutaneous leishmaniasis, L. major (MHOM/IL/81/Friedlin), Miltefosine: mean only
[25] = Visceral leishmaniasis, L. infantum (MHOM/BR/2007/WC (L3015)), Miltefosine: mean only
[26] = Visceral leishmaniasis, L. donovani (MHOM/ NP/2003/BPK282/0-cl4), Miltefosine: mean only

Row | Compound | IC50 [1] [nM] | IC90 [1] [nM] | IC50 [2] [nM] | IC90 [2] [nM] | IC50 [3, 17] [nM] | IC50 [4, 18] [nM] | IC50 [5, 19] [nM] | IC50 [6, 20] [nM] | IC50 [7] [nM] | IC50 [8, 21] [nM] | IC50 [9] [nM] | IC50 [10, 22] [nM] | IC50 [11, 23] [nM] | IC50 [12, 24] [nM] | IC50 [13, 25] [nM] | IC50 [14, 26] [nM] | % Parasite reduction Bone marrow (L. infantum; 25 mg/kg qd) [%] | % Parasite reduction Liver (L. infantum; 25 mg/kg qd) [%] | % Parasite reduction Spleen (L. infantum; 25 mg/kg qd) [%] | other results
1 | COc1cc(C#N)ccc1-c1c(C)[nH]c2nc(N)nc(C)c12 [Compound C1, 4-(2-amino-4,6-dimethyl-7H-pyrrolo[2,3-d]pyrimidin-5-yl)-3-methoxybenzonitrile] | 1390 | 2320 | 870 | 2900 | 3000 ± 1050 | 200 ± 80 | 170 ± 110 | 1490 ± 240 | 380 ± 70 | 60 ± 30 | 350 ± 80 | 150 ± 20 | 690 ± 190 | 500 ± 170 | 440 ± 240 | 100 ± 170 |  |  |  | % Parasite reduction Bone marrow (L. infantum; 25 mg/kg bid): 98.9%; % Parasite reduction Liver (L. infantum; 25 mg/kg bid): 95.9%; % Parasite reduction Spleen (L. infantum; 25 mg/kg bid): 95.2%; % Parasite reduction Bone marrow (L. infantum; 50 mg/kg bid): 97.4%; % Parasite reduction Liver (L. infantum; 50 mg/kg bid): 99.2%; % Parasite reduction Spleen (L. infantum; 50 mg/kg bid): 95.3%
2 | Cc1[nH]c2nc(N)nc(C)c2c1-c1ccc(F)c2c1OCO2 [Compound C2, 5-(7-fluoro-1,3-benzodioxol-4-yl)-4,6-dimethyl-7H-pyrrolo[2,3-d]pyrimidin-2-amine] | 140 | 650 | 150 | 330 |  |  |  |  |  |  |  |  |  |  |  |  |  |  |  | 
3 | COc1nc(OCC(F)(F)F)cnc1-c1c(C)[nH]c2nc(N)nc(C)c12 [Compound C3, 5-[3-methoxy-5-(2,2,2-trifluoroethoxy)pyrazin-2-yl]-4,6-dimethyl-7H-pyrrolo[2,3-d]pyrimidin-2-amine] | 1570 | 6480 | 1580 | 3480 | 6640 ± 610 | 330 ± 80 | 260 ± 130 | 2380 ± 420 | 540 ± 50 | 120 ± 10 | 400 ± 140 | 230 ± 100 | 690 ± 360 | 830 ± 340 | 820 ± 330 | 320 ± 160 | 86.7 | 98.4 | 99.0 | % Parasite reduction Bone marrow (L. infantum; 12.5 mg/kg qd): 89.9%; % Parasite reduction Liver (L. infantum; 12.5 mg/kg qd): 96.1%; % Parasite reduction Spleen (L. infantum; 12.5 mg/kg qd): 98.4%
4 | Cc1[nH]c2nc(N)nc(C)c2c1-c1ccc(C#N)c2c1OCO2 [Compound C4, 7-(2-amino-4,6-dimethyl-7H-pyrrolo[2,3-d]pyrimidin-5-yl)-1,3-benzodioxole-4-carbonitrile] | 160 | 410 | 150 | 370 |  |  |  |  | 60 ± 20 |  | 70 ± 10 |  |  |  |  |  | 99.4 | 99.6 | 99.9 | IC50 [3]: 560 ± 260 nM; IC50 [4]: 50 ± 10 nM; IC50 [5]: 30 ± 10 nM; IC50 [6]: 300 ± 90 nM; IC50 [8]: 10 nM; IC50 [10]: 40 ± 10 nM; IC50 [11]: 170 ± 70 nM; IC50 [12]: 80 ± 20 nM; IC50 [13]: 50 ± 30 nM; IC50 [14]: 30 ± 30 nM; % Parasite reduction Bone marrow (L. infantum; 6.25 mg/kg bid): 93.6%; % Parasite reduction Liver (L. infantum; 6.25 mg/kg bid): 96.9%; % Parasite reduction Spleen (L. infantum; 6.25 mg/kg bid): 97.6%; % Parasite reduction Bone marrow (L. infantum; 12.5 mg/kg bid): 99.6%; % Parasite reduction Liver (L. infantum; 12.5 mg/kg bid): 99.7%; % Parasite reduction Spleen (L. infantum; 12.5 mg/kg bid): 99.9%; % Parasite reduction Bone marrow (L. infantum; 50 mg/kg qd): 99.9%; % Parasite reduction Liver (L. infantum; 50 mg/kg qd): 99.7%; % Parasite reduction Spleen (L. infantum; 50 mg/kg qd): 99.9%
5 | COc1ccccc1-c1c(C)[nH]c2nc(N)nc(C)c12 [TCMDC-143610] |  |  |  |  |  |  |  |  |  |  |  |  |  |  |  |  |  |  |  | pIC50 [15]: 4.6; pIC50 [16]: 6.6
